Laboratory results reported in paper PMC8879095, “UHPLC-MS/MS Analysis of Antibiotics Transfer and Concentrations in Porcine Oral Fluid after Intramuscular Application” (Pharmaceuticals, 2022).
Read-outs that look alike come from different tables or passages of the source.

Experiments:
[1] = cited from earlier work
[2] = Antibiotic concentrations in porcine oral fluid after intramuscular application (UHPLC-MS/MS); assay type: in vivo; conditions: pigs, i.m.; for concentration in oral fluid at withdrawal period: at the end of the withdrawal period for tissues of each drug (Table 3); for distribution to oral fluid: conclusion in words
Protocol: All animals were born in the sow farm (8000 DanBred sows) located in Northern Poland, after crossing ♀(♂Landrace × ♀Yorskshire) × ♂Duroc. Piglets were weaned after 4 weeks of lactation with an average weight of 6 kg and then moved to the weaner stable (23,000 weaners). After the next 7 weeks, animals were transported to the 9000-places fattening farm with an average body weight of 28 kg, where the trial was performed. All farms in the aforementioned three-phase model used weekly batches and an all-in all-out system. Specialist veterinary and production management care were provided in each location.
For the purpose of the study, 240 immunologically castrated boars were divided into 8 groups, 30 animals in each pen. For the control group, 30 pigs were used in separate pens. Their initial body weight was between 40 and 60 kg. Pigs were housed at 20–25 °C. Fatteners were fed ad libitum with antimicrobial-free water and feed provided by feeders throughout the study. Before the experiment, water and feed were checked for antimicrobials, and no antimicrobial treatments were administered to these pigs before. All animals in one pen were treated due to the same health issue using disposable needles and the same drug and dosage. Pens were separated from each other with concrete walls. The drugs and dosage administered to each experimental group with an indication of withdrawal period for tissues are listed in Table 3. The oral fluid samples were collected using three cotton ropes (70 cm length with 1 cm diameter) in each pen suspended separately for 25 min on the front wall of the pen with bottoms at the pigs’ shoulder height, away from water and feed.
The research material was one pooled sample of oral fluid from 10 pigs, in triplicate, per pen. Ropes were removed immediately after collection. The first oral fluid sample was collected 24 h after the first injection. The collection of each subsequent sample took place at the same time (11:30 A.M.) for 35 consecutive days. Additionally, oral fluid samples were collected from pigs not treated with any antibiotics. Oral fluid from each pen was pooled into one 50-mL Falcon plastic tube and centrifuged at 9447× rcf for 15 min. Centrifuged material was transferred to a 15 mL plastic tube and frozen at −20 °C until analysis.
Before the analysis, the oral fluid samples were centrifuged at 9447× rcf. Next, an aliquot (1 mL) of oral fluid was placed into a 2 mL polypropylene centrifuge tube, and the 30 µL of the internal standard at the concentration of 2 µg/mL was added. For the extraction of analysed antibiotics, 600 µL of 0.5% formic acid was added, vortexed for 30 s and centrifuged for 10 min at 9447× rcf. Then, the supernatant was filtered through a […] PVDF filter into an amber glass vial before chromatographic analysis.
The mass spectrometry detection was operated in the positive ESI mode with multiple reaction monitoring (MRM).

[3] = design: method as in earlier work; conditions: cited from earlier work
[4] = design: method as in PMID 14651045, PMID 14651045; conditions: cited from earlier work
[5] = male, (Landrace × Yorkshire) × Duroc crossbred (DanBred sows), pig, intramuscular, oral fluid, time 1 d (24 h after first injection), treatment period, read-out: Avarage Concentrations in oral fluid
[6] = male, (Landrace × Yorkshire) × Duroc crossbred (DanBred sows), pig, intramuscular, oral fluid, treatment period, read-out: Avarage Concentrations in oral fluid
[7] = male, (Landrace × Yorkshire) × Duroc crossbred (DanBred sows), pig, intramuscular, oral fluid, time 4 d, posttreatment, read-out: Avarage Concentrations in oral fluid
[8] = male, (Landrace × Yorkshire) × Duroc crossbred (DanBred sows), pig, intramuscular, oral fluid, posttreatment, read-out: Avarage Concentrations in oral fluid
[9] = oral fluid, time 30 d, posttreatment

| Compound | pKa [1] | concentration at 1 d [2, 5] [ng/mL] | concentration at 2 d [2, 6] [ng/mL] | concentration at 3 d [2, 6] [ng/mL] | concentration at 4 d [2, 7] [ng/mL] | concentration at 5 d [2, 8] [ng/mL] | concentration at 6 d [2, 8] [ng/mL] | concentration at 7 d [2, 8] [ng/mL] | concentration at 8 d [2, 8] [ng/mL] | concentration at 9 d [2, 8] [ng/mL] | concentration at 10 d [2, 8] [ng/mL] | concentration at 11 d [2, 8] [ng/mL] | concentration at 12 d [2, 8] [ng/mL] | concentration at 13 d [2, 8] [ng/mL] | concentration at 14 d [2, 8] [ng/mL] | concentration at 15 d [2, 8] [ng/mL] | concentration at 16 d [2, 8] [ng/mL] | concentration at 17 d [2, 8] [ng/mL] | concentration at 18 d [2, 8] [ng/mL] | concentration at 19 d [2, 8] [ng/mL] | other results |
| --- | --- | --- | --- | --- | --- | --- | --- | --- | --- | --- | --- | --- | --- | --- | --- | --- | --- | --- | --- | --- | --- |
| CCC[C@@H]1C[C@@H](C(=O)N[C@@H]([C@H]2O[C@H](SC)[C@H](O)[C@@H](O)[C@H]2O)[C@@H](C)O)N(C)C1 [LIN, lincomycin] | about 7.6 | 10500 | 2960 ± 446 | 4250 ± 559 | 1550 | 1670 ± 199 | 1790 ± 203 | 1480 ± 186 | 437 ± 101 | 457 ± 96 | 420 ± 83 | 194 ± 55 | 257 ± 76 | 131 ± 41 | 125 ± 33 | 277 ± 61 | 337 ± 69 | 128 ± 28 | 302 ± 51 | 279 ± 44 | concentration at 1 d ([2]; male, (Landrace × Yorkshire) × Duroc crossbred (DanBred sows), pig, intramuscular, oral fluid, first day of medication (abstract), read-out: concentration in oral fluid on the first day of medication): 10500 ng/g; concentration at 20 d [2, 8]: 376 ± 52 ng/mL; concentration at 21 d [2, 8]: 252 ± 39 ng/mL; concentration at 22 d [2, 8]: 142 ± 24 ng/mL; concentration at 23 d [2, 8]: 298 ± 33 ng/mL; concentration at 24 d [2, 8]: 326 ± 47 ng/mL; concentration at 25 d [2, 8]: 180 ± 44 ng/mL; concentration at 26 d [2, 8]: 160 ± 36 ng/mL; concentration at 27 d [2, 8]: 205 ± 43 ng/mL; concentration at 28 d ([2]; male, (Landrace × Yorkshire) × Duroc crossbred (DanBred sows), pig, intramuscular, oral fluid, time 28 d, posttreatment, read-out: Avarage Concentrations in oral fluid): 103 ± 26 ng/mL; concentration at 29 d ([2]; male, (Landrace × Yorkshire) × Duroc crossbred (DanBred sows), pig, intramuscular, oral fluid, time 29 d, posttreatment, read-out: Avarage Concentrations in oral fluid): 85.6 ± 16 ng/mL; concentration at 30 d ([2]; male, (Landrace × Yorkshire) × Duroc crossbred (DanBred sows), pig, intramuscular, oral fluid, time 30 d, posttreatment, read-out: Avarage Concentrations in oral fluid): 58.1 ng/mL; concentration in oral fluid at withdrawal period ([2]; oral fluid): 437 ng/mL; Avarage Concentrations in oral fluid ([2]; oral fluid, time 1 d (24 h after first injection), treatment period): 10,500 ± 1889 µg/L; Avarage Concentrations in oral fluid ([2]; oral fluid, time 4 d, posttreatment): 1550 ± 211 µg/L; Avarage Concentrations in oral fluid [2, 9]: 58.1 ± 12 µg/L; distribution to oral fluid [2]: high distribution; apparent volume of distribution [3]: > 1 L/kg |
| CC[C@H]1OC(=O)C[C@@H](O)[C@H](C)[C@@H](O[C@@H]2O[C@H](C)[C@@H](O[C@H]3C[C@@](C)(O)[C@@H](O)[C@H](C)O3)[C@H](N(C)C)[C@H]2O)[C@@H](CC=O)C[C@@H](C)C(=O)/C=C/C(C)=C/[C@@H]1CO[C@@H]1O[C@H](C)[C@@H](O)[C@@H](OC)[C@H]1OC [TYL, tylosin] | 7.1 | 396 ± 68 | 958 ± 166 | 832 ± 142 | 654 ± 111 | 538 ± 96 | 475 ± 89 | 175 ± 54 | 118 ± 41 | 158 ± 62 | 49.3 ± 13 | 54.4 ± 16 | 140 ± 36 | 32.3 ± 11 | 30.6 ± 8.4 | 19.2 ± 5.2 | 52.8 ± 33 | 31.9 ± 10 | 13.9 ± 3.6 | 16.1 ± 4.6 | binding degree to plasma proteins [4]: < 50%; concentration at 1 d ([2]; male, (Landrace × Yorkshire) × Duroc crossbred (DanBred sows), pig, intramuscular, 5 mg/kg, oral fluid, time 1 d (24 h after first injection), treatment period, read-out: Avarage Concentrations in oral fluid): 396 ng/mL; concentration at 20 d [2, 8]: 25.4 ± 7.7 ng/mL; concentration at 21 d [2, 8]: 9.2 ± 2.1 ng/mL; concentration at 22 d [2, 8]: 5.5 ± 1.1 ng/mL; concentration at 23 d [2, 8]: 5.4 ± 0.8 ng/mL; concentration at 24 d [2, 8]: 6.6 ± 0.9 ng/mL; concentration at 25 d [2, 8]: 5 ± 1.3 ng/mL; concentration at 26 d [2, 8]: 3 ± 0.5 ng/mL; concentration at 27 d [2, 8]: 6.8 ± 1.7 ng/mL; concentration in oral fluid at withdrawal period ([2]; oral fluid): 6.6 ng/mL; day of peak concentration in oral fluid ([2]; oral fluid, day of drug administration): second day; time for which the analyte was present / quantified in oral fluid ([2]; oral fluid, sampling for 30 days): 27 days; Avarage Concentrations in oral fluid ([2]; oral fluid, time 28 d, posttreatment): <LOQ; Avarage Concentrations in oral fluid ([2]; oral fluid, time 29 d, posttreatment): <LOQ; Avarage Concentrations in oral fluid [2, 9]: <LOQ; distribution to oral fluid [2]: high distribution |
